Measured values: publication PMC9806268, “Overlapping activation pattern of bitter taste receptors affect sensory adaptation and food perception” (Frontiers in Nutrition, 2022)
Read-outs that look alike come from different tables or passages of the source.

Experiments:
Test in all cases: Fluo-4 calcium mobilization assay (FLIPR), stable inducible cells
Assay type in all cases: cell-based
TAS2R46 = biological target: T1, TAS2R46 (Homo sapiens, UniProt P59540)
T1 construct: cDNA in pcDNA5/FRT/TO
T1 sequence (P59540 1-309): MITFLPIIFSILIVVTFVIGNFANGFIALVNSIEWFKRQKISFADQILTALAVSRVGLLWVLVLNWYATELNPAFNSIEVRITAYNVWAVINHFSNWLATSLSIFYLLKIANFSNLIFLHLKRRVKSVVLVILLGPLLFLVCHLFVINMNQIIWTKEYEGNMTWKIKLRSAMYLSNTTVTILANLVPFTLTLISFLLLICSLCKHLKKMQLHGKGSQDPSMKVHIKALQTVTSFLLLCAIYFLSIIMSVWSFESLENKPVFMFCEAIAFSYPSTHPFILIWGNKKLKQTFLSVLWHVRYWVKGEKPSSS
From the text: Fluo-4 calcium mobilization assay (FLIPR), stable inducible cells on TAS2R46

TAS2R43 = biological target: T2, TAS2R43 (Homo sapiens, UniProt P59537); settings: for EC50: read-out: TAS2R43 / EC50-conc.
T2 sequence (P59537 1-309): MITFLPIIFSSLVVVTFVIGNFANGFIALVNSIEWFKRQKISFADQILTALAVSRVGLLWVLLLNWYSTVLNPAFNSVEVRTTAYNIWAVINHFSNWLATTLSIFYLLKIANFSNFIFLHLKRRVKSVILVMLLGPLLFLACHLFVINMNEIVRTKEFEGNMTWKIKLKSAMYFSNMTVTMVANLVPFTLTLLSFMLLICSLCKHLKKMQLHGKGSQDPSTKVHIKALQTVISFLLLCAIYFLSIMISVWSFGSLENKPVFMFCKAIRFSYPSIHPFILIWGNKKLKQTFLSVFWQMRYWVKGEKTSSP
From the text: Fluo-4 calcium mobilization assay (FLIPR), stable inducible cells on TAS2R43

TAS2R14 = biological target: T3, TAS2R14 (Homo sapiens, UniProt Q9NYV8); settings: agonist; C1 buffer pH 7.4; non-induced cells subtracted
T3 sequence (Q9NYV8 1-317): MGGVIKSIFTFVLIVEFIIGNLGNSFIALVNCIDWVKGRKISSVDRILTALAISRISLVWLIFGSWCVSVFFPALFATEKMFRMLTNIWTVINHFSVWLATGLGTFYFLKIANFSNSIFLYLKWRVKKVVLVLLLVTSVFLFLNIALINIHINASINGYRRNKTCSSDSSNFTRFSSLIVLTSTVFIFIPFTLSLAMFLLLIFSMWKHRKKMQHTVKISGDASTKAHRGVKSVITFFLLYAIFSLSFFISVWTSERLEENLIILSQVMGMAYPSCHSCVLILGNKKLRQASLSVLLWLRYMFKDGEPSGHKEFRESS
From the text: Fluo-4 calcium mobilization assay (FLIPR), stable inducible cells on TAS2R14

[1] = agonist, C1 buffer pH 7.4, non-induced cells subtracted

Row | EC50 (TAS2R46; read-out: TAS2R46 / EC50-conc.) [µM] | EC50 (TAS2R43) [µM] | TAS2R14 / Threshold (TAS2R14) [µM] | EC50 (TAS2R43; [1]) [µM] | TAS2R46 / Threshold (TAS2R46; [1]) [µM] | TAS2R43 threshold (TAS2R43; [1]) [µM] | Molecule
1 | 8.85 ± 1.17 | 14.9 ± 2.5 | 100 | – | – | – | C=C1C(=O)O[C@@H]2[C@H]3C(CO)=CC(=O)C3=C(C)C[C@H](O)[C@@H]12 [lactucin]
2 | – | – | 30 | 0.46 ± 0.08 | – | – | lactucopicrin
3 | – | – | 100 | – | 30 | 10 | CC1=C2C(=O)C=C(CO)[C@@H]2[C@H]2OC(=O)[C@@H](C)[C@@H]2[C@@H](O)C1 [11β,13-dihydrolactucin]
